What was measured:
[1] = biological target: Human immunodeficiency virus type 1 protease (Human immunodeficiency virus 1, UniProt Q72874); assay: Inhibition constant against HIV Protease
MT4 = assay: Antiviral inhibitory concentration against human immunodeficiency virus type 1 in MT-4 cell culture; format: functional, cell-based

Compound	Ki [1] [nM]	IC50 (MT4) [nM]
COCCOCCOc1ccc(C[C@H](CC(=O)CN2C(=O)[C@@H](Cc3ccccc3)C[C@@H]2Cc2ccccc2)C(=O)NC2c3ccccc3C[C@H]2O)cc1 (some centres undefined)	0.02	93
O=C(C[C@@H](Cc1ccccc1)C(=O)NC1c2ccccc2C[C@H]1O)CN1C(=O)[C@@H](Cc2ccccc2)C[C@@H]1Cc1ccc(OCC(=O)N2CCOCC2)cc1 (some centres undefined)	0.1	200
O=C(C[C@@H](Cc1ccccc1)C(=O)NC1c2ccccc2C[C@H]1O)CN1C(=O)[C@@H](Cc2ccccc2)C[C@@H]1Cc1ccc(O)cc1 (some centres undefined)	–	200
O=C(C[C@@H](Cc1ccc(OCCO)cc1)C(=O)NC1c2ccccc2C[C@H]1O)CN1C(=O)[C@@H](Cc2ccccc2)C[C@@H]1Cc1ccccc1 (some centres undefined)	0.02	94
O=C(C[C@@H](Cc1ccccc1)C(=O)NC1c2ccccc2C[C@H]1O)CN1C(=O)[C@@H](Cc2ccccc2)C[C@@H]1Cc1ccccc1 (some centres undefined)	0.05	720
NC(=O)COc1ccc(C[C@H](CC(=O)CN2C(=O)[C@@H](Cc3ccccc3)C[C@@H]2Cc2ccccc2)C(=O)NC2c3ccccc3C[C@H]2O)cc1 (some centres undefined)	0.07	360
O=C(C[C@@H](Cc1ccc(OCc2ccccc2)cc1)C(=O)NC1c2ccccc2C[C@H]1O)CN1C(=O)[C@@H](Cc2ccccc2)C[C@@H]1Cc1ccccc1 (some centres undefined)	0.11	920
O=C(C[C@@H](Cc1ccc(OCC(=O)N2CCOCC2)cc1)C(=O)NC1c2ccccc2C[C@H]1O)CN1C(=O)[C@@H](Cc2ccccc2)C[C@@H]1Cc1ccccc1 (some centres undefined)	0.02	63
O=C(C[C@@H](Cc1ccccc1)C(=O)NC1c2ccccc2C[C@H]1O)CN1C(=O)[C@@H](Cc2ccccc2)C[C@@H]1Cc1ccc(OCCN2CCOCC2)cc1 (some centres undefined)	1.3	960
CN1CCN(C(=O)COc2ccc(C[C@H](CC(=O)CN3C(=O)[C@@H](Cc4ccccc4)C[C@@H]3Cc3ccccc3)C(=O)NC3c4ccccc4C[C@H]3O)cc2)CC1 (some centres undefined)	0.05	130
O=C(C[C@@H](Cc1ccc(OCc2ccccn2)cc1)C(=O)NC1c2ccccc2C[C@H]1O)CN1C(=O)[C@@H](Cc2ccccc2)C[C@@H]1Cc1ccccc1 (some centres undefined)	0.07	380
O=C(C[C@@H](Cc1ccc(O)cc1)C(=O)NC1c2ccccc2C[C@H]1O)CN1C(=O)[C@@H](Cc2ccccc2)C[C@@H]1Cc1ccccc1 (some centres undefined)	0.06	320
O=C(C[C@@H](Cc1ccccc1)C(=O)NC1c2ccccc2C[C@H]1O)CN1C(=O)[C@@H](Cc2ccccc2)C[C@@H]1Cc1ccc(OCc2ccccc2)cc1 (some centres undefined)	0.13	550
O=C(C[C@@H](Cc1ccc(OCCN2CCOCC2)cc1)C(=O)NC1c2ccccc2C[C@H]1O)CN1C(=O)[C@@H](Cc2ccccc2)C[C@@H]1Cc1ccccc1 (some centres undefined)	0.14	83
O=C(C[C@@H](Cc1ccccc1)C(=O)NC1c2ccccc2C[C@H]1O)CN1C(=O)[C@@H](Cc2ccccc2)C[C@@H]1Cc1ccc(OCCO)cc1 (some centres undefined)	0.3	480
